Legend:
Jarid1B = molecular target: T1, Jarid1B (Homo sapiens, UniProt Q9UGL1); test: Jarid1B in vitro enzyme inhibition assay (TR-FRET); assay type: biochemical
T1 construct: purchased BPS Bioscience or custom made by MolecularThroughput 50121
T1 sequence (Q9UGL1 2-751): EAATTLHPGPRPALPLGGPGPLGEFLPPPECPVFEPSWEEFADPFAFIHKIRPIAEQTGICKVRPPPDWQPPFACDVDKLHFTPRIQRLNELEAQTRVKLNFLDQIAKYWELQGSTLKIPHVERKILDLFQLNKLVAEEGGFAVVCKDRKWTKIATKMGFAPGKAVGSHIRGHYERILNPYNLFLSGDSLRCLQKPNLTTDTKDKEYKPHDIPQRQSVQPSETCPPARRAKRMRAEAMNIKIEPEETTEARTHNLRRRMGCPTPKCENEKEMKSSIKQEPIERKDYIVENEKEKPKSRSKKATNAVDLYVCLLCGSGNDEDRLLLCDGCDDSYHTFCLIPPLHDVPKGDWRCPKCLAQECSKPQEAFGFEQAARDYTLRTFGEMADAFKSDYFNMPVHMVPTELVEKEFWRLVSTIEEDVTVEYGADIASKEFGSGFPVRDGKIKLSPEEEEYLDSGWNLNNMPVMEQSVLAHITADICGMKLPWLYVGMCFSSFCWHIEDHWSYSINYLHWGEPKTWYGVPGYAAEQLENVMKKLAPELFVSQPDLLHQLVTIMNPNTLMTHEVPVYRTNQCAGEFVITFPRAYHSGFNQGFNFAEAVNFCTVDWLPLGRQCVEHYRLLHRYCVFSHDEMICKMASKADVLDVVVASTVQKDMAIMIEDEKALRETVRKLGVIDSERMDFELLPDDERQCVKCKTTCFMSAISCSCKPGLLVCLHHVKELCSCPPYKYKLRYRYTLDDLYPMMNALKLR
In short: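 Jarid1B (AA 2-751, baculovirus-expressed) at 0.8 nM with 300 nM biotin-H3K4me3 peptide and 2 μM α-ketoglutarate in HEPES pH 7.3 with ascorbate and Fe(II), 30 min at room temperature. Stopped with EDTA; H3K4me1-2 product detected by TR-FRET (665/615 ratio) and IC50 fitted from 11-point dilutions.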

JMJD2C = molecular target: T2, JMJD2C (Homo sapiens, UniProt Q9H3R0); test: JMJD2C in vitro enzyme inhibition assay (TR-FRET); assay type: biochemical
T2 construct: purchased BPS Bioscience 50105
T2 sequence (Q9H3R0 2-372): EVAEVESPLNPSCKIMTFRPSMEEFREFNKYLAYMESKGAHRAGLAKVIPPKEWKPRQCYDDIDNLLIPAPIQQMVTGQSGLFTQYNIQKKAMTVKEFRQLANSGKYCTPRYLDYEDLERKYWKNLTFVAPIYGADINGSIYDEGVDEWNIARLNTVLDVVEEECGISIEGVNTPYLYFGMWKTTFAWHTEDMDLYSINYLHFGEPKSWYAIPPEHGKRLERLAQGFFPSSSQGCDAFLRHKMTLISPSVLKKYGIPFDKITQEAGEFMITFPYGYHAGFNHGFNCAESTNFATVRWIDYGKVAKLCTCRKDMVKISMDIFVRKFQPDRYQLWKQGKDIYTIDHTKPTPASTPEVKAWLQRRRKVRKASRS
In short: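 Baculovirus-expressed human JMJD2C (AA 2-372) at 0.3 nM demethylated 300 nM biotin-H3K9me3 peptide with 2 μM alpha-ketoglutarate in HEPES pH 7.3 containing ascorbate and Fe(II), 30 min at room temperature. EDTA-stopped product was read by TR-FRET with Eu-anti-H3K9me2 and streptavidin-APC; 665/615 ratios from 11-point dilutions gave IC50.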

| IC50 (Jarid1B) [nM] | IC50 (JMJD2C) [nM] | Compound |
| --- | --- | --- |
| ≤ 100 | ≤ 100 | O=S(=O)(C1CC1)N1CC[C@@H](n2cc(Oc3nc(O)c4ccncc4n3)cn2)C1 [Example 127, 2-({1-[(3R)-1-(cyclopropanesulfonyl)pyrrolidin-3-yl]-1H-pyrazol-4-yl}oxy)pyrido[3,4-d]pyrimidin-4-ol] |
| ≤ 100 | ≤ 100 | O=S(=O)(c1ccccc1)N1CC[C@@H](n2cc(Oc3nc(O)c4ccncc4n3)cn2)C1 [Example 128, 2-({1-[(3R)-1-(benzenesulfonyl)pyrrolidin-3-yl]-1H-pyrazol-4-yl}oxy)pyrido[3,4-d]pyrimidin-4-ol] |
| ≤ 100 | ≤ 100 | CC(=O)N1CC[C@@H](n2cc(Oc3nc(O)c4ccncc4n3)cn2)C1 [Example 129, 1-[(3R)-3-[4-({4-hydroxypyrido[3,4-d]pyrimidin-2-yl}oxy)-1H-pyrazol-1-yl]pyrrolidin-1-yl]ethan-1-one] |
| ≤ 100 | ≤ 100 | N#CCC(=O)N1CC[C@@H](n2cc(Oc3nc(O)c4ccncc4n3)cn2)C1 [Example 130, 3-[(3R)-3-[4-({4-hydroxypyrido[3,4-d]pyrimidin-2-yl}oxy)-1H-pyrazol-1-yl]pyrrolidin-1-yl]-3-oxopropanenitrile] |
| ≤ 100 | ≤ 100 | O=C(C1CC1)N1CC[C@@H](n2cc(Oc3nc(O)c4ccncc4n3)cn2)C1 [Example 131, 2-({1-[(3R)-1-cyclopropanecarbonylpyrrolidin-3-yl]-1H-pyrazol-4-yl}oxy)pyrido[3,4-d]pyrimidin-4-ol] |
| ≤ 100 | ≤ 100 | O=C(c1ccccc1)N1CC[C@@H](n2cc(Oc3nc(O)c4ccncc4n3)cn2)C1 [Example 132, 2-({1-[(3R)-1-benzoylpyrrolidin-3-yl]-1H-pyrazol-4-yl}oxy)pyrido[3,4-d]pyrimidin-4-ol] |
| ≤ 100 | ≤ 100 | Oc1nc(Oc2cnn([C@@H]3CCN(Cc4ccccc4)C3)c2)nc2cnccc12 [Example 133, 2-({1-[(3R)-1-benzylpyrrolidin-3-yl]-1H-pyrazol-4-yl}oxy)pyrido[3,4-d]pyrimidin-4-ol] |
| ≤ 100 | ≤ 100 | Oc1nc(Oc2cnn([C@@H]3CCN(c4ccc(F)cc4)C3)c2)nc2cnccc12 [Example 134, 2-({1-[(3R)-1-(4-fluorophenyl)pyrrolidin-3-yl]-1H-pyrazol-4-yl}oxy)pyrido[3,4-d]pyrimidin-4-ol] |
| ≤ 100 | ≤ 100 | Oc1nc(Oc2cnn([C@H]3CCNC3)c2)nc2cnccc12 [Example 135, 2-({1-[(3S)-pyrrolidin-3-yl]-1H-pyrazol-4-yl}oxy)pyrido[3,4-d]pyrimidin-4-ol] |
| ≤ 100 | ≤ 100 | CCS(=O)(=O)N1CC[C@H](n2cc(Oc3nc(O)c4ccncc4n3)cn2)C1 [Example 136, 2-({1-[(3S)-1-(ethanesulfonyl)pyrrolidin-3-yl]-1H-pyrazol-4-yl}oxy)pyrido[3,4-d]pyrimidin-4-ol] |
| ≤ 100 | ≤ 100 | O=S(=O)(C1CC1)N1CC[C@H](n2cc(Oc3nc(O)c4ccncc4n3)cn2)C1 [Example 137, 2-({1-[(3S)-1-(cyclopropanesulfonyl)pyrrolidin-3-yl]-1H-pyrazol-4-yl}oxy)pyrido[3,4-d]pyrimidin-4-ol] |
| ≤ 100 | ≤ 100 | O=S(=O)(c1ccccc1)N1CC[C@H](n2cc(Oc3nc(O)c4ccncc4n3)cn2)C1 [Example 138, 2-({1-[(3S)-1-(benzenesulfonyl)pyrrolidin-3-yl]-1H-pyrazol-4-yl}oxy)pyrido[3,4-d]pyrimidin-4-ol] |
| ≤ 100 | ≤ 100 | CC(=O)N1CC[C@H](n2cc(Oc3nc(O)c4ccncc4n3)cn2)C1 [Example 139, 1-[(3S)-3-[4-({4-hydroxypyrido[3,4-d]pyrimidin-2-yl}oxy)-1H-pyrazol-1-yl]pyrrolidin-1-yl]ethan-1-one] |
| ≤ 100 | ≤ 100 | N#CCC(=O)N1CC[C@H](n2cc(Oc3nc(O)c4ccncc4n3)cn2)C1 [Example 140, 3-[(3S)-3-[4-({4-hydroxypyrido[3,4-d]pyrimidin-2-yl}oxy)-1H-pyrazol-1-yl]pyrrolidin-1-yl]-3-oxopropanenitrile] |
| ≤ 100 | ≤ 100 | O=C(C1CC1)N1CC[C@H](n2cc(Oc3nc(O)c4ccncc4n3)cn2)C1 [Example 141, 2-({1-[(3S)-1-cyclopropanecarbonylpyrrolidin-3-yl]-1H-pyrazol-4-yl}oxy)pyrido[3,4-d]pyrimidin-4-ol] |
| ≤ 100 | ≤ 100 | O=C(c1ccccc1)N1CC[C@H](n2cc(Oc3nc(O)c4ccncc4n3)cn2)C1 [Example 142, 2-({1-[(3S)-1-benzoylpyrrolidin-3-yl]-1H-pyrazol-4-yl}oxy)pyrido[3,4-d]pyrimidin-4-ol] |
| ≤ 100 | ≤ 100 | O=C(C1CCNCC1)N1CC[C@H](n2cc(Oc3nc(O)c4ccncc4n3)cn2)C1 [Example 143, 2-({1-[(3S)-1-(piperidine-4-carbonyl)pyrrolidin-3-yl]-1H-pyrazol-4-yl}oxy)pyrido[3,4-d]pyrimidin-4-ol] |
| ≤ 100 | ≤ 100 | CNCC(=O)N1CC[C@H](n2cc(Oc3nc(O)c4ccncc4n3)cn2)C1 [Example 144, 1-[(3S)-3-[4-({4-hydroxypyrido[3,4-d]pyrimidin-2-yl}oxy)-1H-pyrazol-1-yl]pyrrolidin-1-yl]-2-(methylamino)ethan-1-one] |
| ≤ 100 | ≤ 100 | Oc1nc(Oc2cnn([C@H]3CCN(c4ccccc4)C3)c2)nc2cnccc12 [Example 145, 2-({1-[(3S)-1-phenylpyrrolidin-3-yl]-1H-pyrazol-4-yl}oxy)pyrido[3,4-d]pyrimidin-4-ol] |
| ≤ 100 | ≤ 100 | Oc1nc(Oc2cnn([C@H]3CCN(c4ccc(F)cc4)C3)c2)nc2cnccc12 [Example 146, 2-({1-[(3S)-1-(4-fluorophenyl)pyrrolidin-3-yl]-1H-pyrazol-4-yl}oxy)pyrido[3,4-d]pyrimidin-4-ol] |
| ≤ 100 | ≤ 100 | Oc1nc(Oc2cnn([C@H]3CCN(c4ccccc4F)C3)c2)nc2cnccc12 [Example 147, 2-({1-[(3S)-1-(2-fluorophenyl)pyrrolidin-3-yl]-1H-pyrazol-4-yl}oxy)pyrido[3,4-d]pyrimidin-4-ol] |
| ≤ 100 | ≤ 100 | Oc1nc(Oc2cnn([C@H]3CCN(c4ccc(Cl)cc4)C3)c2)nc2cnccc12 [Example 148, 2-({1-[(3S)-1-(4-chlorophenyl)pyrrolidin-3-yl]-1H-pyrazol-4-yl}oxy)pyrido[3,4-d]pyrimidin-4-ol] |
| ≤ 100 | ≤ 100 | Oc1nc(Oc2cnn([C@@H]3CCCNC3)c2)nc2cnccc12 [Example 149, 2-({1-[(3R)-piperidin-3-yl]-1H-pyrazol-4-yl}oxy)pyrido[3,4-d]pyrimidin-4-ol] |
| ≤ 100 | ≤ 100 | CCS(=O)(=O)N1CCC[C@@H](n2cc(Oc3nc(O)c4ccncc4n3)cn2)C1 [Example 150, 2-({1-[(3R)-1-(ethanesulfonyl)piperidin-3-yl]-1H-pyrazol-4-yl}oxy)pyrido[3,4-d]pyrimidin-4-ol] |
| ≤ 100 | ≤ 100 | O=S(=O)(c1ccccc1)N1CCC[C@@H](n2cc(Oc3nc(O)c4ccncc4n3)cn2)C1 [Example 152, 2-({1-[(3R)-1-(benzenesulfonyl)piperidin-3-yl]-1H-pyrazol-4-yl}oxy)pyrido[3,4-d]pyrimidin-4-ol] |
| ≤ 100 | ≤ 100 | CC(=O)N1CCC[C@@H](n2cc(Oc3nc(O)c4ccncc4n3)cn2)C1 [Example 153, 1-[(3R)-3-[4-({4-hydroxypyrido[3,4-d]pyrimidin-2-yl}oxy)-1H-pyrazol-1-yl]piperidin-1-yl]ethan-1-one] |
| ≤ 100 | ≤ 100 | N#CCC(=O)N1CCC[C@@H](n2cc(Oc3nc(O)c4ccncc4n3)cn2)C1 [Example 154, 3-[(3R)-3-[4-({4-hydroxypyrido[3,4-d]pyrimidin-2-yl}oxy)-1H-pyrazol-1-yl]piperidin-1-yl]-3-oxopropanenitrile] |
